Results on six compounds are retold here after patent US20110160279A1, “METHODS FOR TREATMENT AND PREVENTION OF OTOTOXICITY BY siRNA” (BOARD OF TRUSTEES OF SOUTHERN ILLINOIS UNIVERSITY, priority 2007, published 2011).

Read-outs that look alike come from different tables or passages of the source.

The subject of data set [1] is UB-OC1 cells. Description: Apoptosis by TUNEL staining in UB-OC1 cells. The format is cell-based, mouse. The settings on record: for apoptotic cells (TUNEL), of total cells: pretreated 30 min with TRPV1 inhibitor, then cisplatin 20 μM 24 h. How it is done: (§1) Immortalized organ of Corti cells derived from the mouse, UB/OC-1 cells, were obtained from Dr. Matthew Holley (Institute of Molecular Physiology, Addison Building, Western Bank, Sheffield, UK) and cultured in RPMI 1640 supplemented with 10% Fetalclone II (Hyclone, Logan, Utah) serum and penicillin-streptomycin. Cultures were grown in a 33° C. incubator in 10% CO2.
Frag-EL DNA fragmentation kit and H2DCFDA dye was purchased from (Calbiochem, San Diego, Calif.). TRPV1 antibody (Neuromics, Edina, Minn.) and secondary goat anti rabbit antibody was purchased from Santa Cruz Biotechnology (Santa Cruz, Calif.).
(§2) The increases in these proteins were attenuated by capsazepine (10 μM), implicating TRPV1 in this process.

For another data set, the system named is p53. Description: p53 protein expression in UB/OC-1 cells. In kind it is cell-based, mouse. The settings on record: pretreatment (capsazepine 10 μM; BAPTA-AM 30 min) before cisplatin. The protocol: as §2
For the next data set, the system named is Bax. Description: Bax protein expression in UB/OC-1 cells. In kind it is cell-based, mouse. The settings on record: pretreatment (capsazepine 10 μM; BAPTA-AM 30 min) before cisplatin. The protocol:
as §2

The next data set has as its system UB/OC-1. Description: Gentamicin-induced ROS generation by DCF2DA in UB/OC-1 cells. The format is cell-based, mouse. The settings on record: capsazepine 10 μM or ruthenium red 20 μM for 15 min, then gentamicin (20 μM) 30 min. How it is done:
FIG. 5 depicts that inhibition of TRPV1 reduces generation of reactive oxygen species (ROS) by aminoglycosides. UB/OC-1 cultures were pretreated with vehicle (control), capsazepine (10 μM) or ruthenium red (20 μM) for 15 min prior to the administration of vehicle (control) or gentamicin (20 μM) for 30 min and the generation of reactive oxygen species was determined by the fluorescence of 2′,7′-dichlorodihydrofluorescein diacetate (DCF2DA) using confocal microscopy.
In this study, the mouse organ of Corti cell line (UB/OC-1) was used to examine the properties of aminoglycoside-induced ROS generation. For these experiments, cells were grown on coverslips to 60-80% confluency, then pretreated with vehicle (control and gentamicin groups), capsazepine (10 μM) or ruthenium red (20 μM) for 15 min. This was followed by vehicle (control) or gentamicin for 30 min. Cells were then loaded with 2′,7′-dichlorodihydrofluorescein diacetate (DCF2DA) and imaged by confocal microscopy.

The subject of a further data set is TRPV1 mRNA. Description: Real time RT-PCR of TRPV1 mRNA in rat cochlea. In kind it is in vivo. The protocol: (§3) Animal procedures and sample collection: Male Wistar rats were used for this study. Pre-ABR's were performed 2-3 days before round window application of siTRPV1 or PBS. […] The cochleas were dissected and used for the preparation of total RNA or total protein extracts, or perfused with 2.5% glutaraldehyde for morphological studies by Scanning Electron Microscopy (SEM's) or 4% paraformaldehyde for immunocytochemistry.
(§4) RNA was isolated by adding 1 ml TR1 reagent to 100 mg of cochlear or cortical tissue or 0.5 ml TR1 reagent (Sigma, St. Louis, Mo.) per well of each six well plate, according to the manufacturer's instructions.
(§5) Real time reverse transcriptase polymerase chain reaction (RT-PCR): One microgram of total RNA was converted to cDNA using iScript cDNA Synthesis Kit (Bio-Rad, Hercules, Calif.), and qRTPCR was performed as described by (Mukherjea et al, 2006). Gene specific primer pairs were used for the various reactions and mRNA expression levels were normalized to the levels of GAPDH house keeping gene.
(§6) The rodent set of primers and siRNA were based on the homologous sequences in the rat and mouse cDNA sequences. The primers were purchased from Sigma Genosys (St. Louis, Mo.). Purified siRNA duplexes were purchased from Qiagen (Valencia, Calif.).

The subject of data set [2] is NOX3 mRNA. Description: Real time RT-PCR of NOX3 mRNA in rat cochlea. In kind it is in vivo. How it is done:
as §3, §4, §5, §6

A further data set relates to TRPV1. The format is cell-based, mouse. The settings on record: pretreatment with 100 μM AEBSF or 10 μM DPI before cisplatin 2.5 μM. How it is done:
as §1
To further study the role of ROS generated via cochlear NADPH oxidases in the induction of TRPV1 in the cochlea, in vitro experiments were performed using the organ of Corti transformed hair cell line, UB/OC1 (Rivolta et al., Proc. R. Sco. Lond., 265, 1595-1603, 1998). […] Immunolabeling was quantitated by fluorescence imaging using a confocal microscope. […] The immunofluorescence in these groups was reduced by 60 and 70%, respectively (FIG. 2B). […] The increases in expression of these genes were inhibited by DPI (10 μM), indicative of a role or NADPH oxidase activity in the induction of these subunits (FIG. 2G).

The subject of data set [3] is NOX3 mRNA. Description: Real time RT-PCR of NOX3 mRNA in UB/OC-1 cells. In kind it is cell-based, mouse. The settings on record: DPI 10 μM. How it is done: as §1, §4, §5, §6
A further data set has as its system gp91. Description: Real time RT-PCR of gp91 mRNA in UB/OC-1 cells. The settings on record: DPI 10 μM. The format is cell-based, mouse. How it is done:
as §1, §4, §5, §6

Another data set deals with Rac1. Description: Real time RT-PCR of Rac1 mRNA in UB/OC-1 cells. The settings on record: DPI 10 μM. The format is cell-based, mouse. The protocol:
as §1, §4, §5, §6

Data set [4] has as its system UB-OC1 cells. Description: Cell viability and morphology of UB-OC1 cultures. The format is cell-based, mouse.
Another data set has as its system NADPH oxidase. The settings on record: 10 μM, cochlear extracts, Lucigenin probe.
In data set [5] the test system is UB-OC1 cells. Description: Cisplatin-induced ROS generation by DCF2DA fluorescence in UB-OC1 cells. In kind it is cell-based, mouse. The settings on record: pretreated with AEBSF 100 μM.

Protocol for NADPH oxidase: In order to determine whether noise exposure increased the activity of NADPH oxidase in the chinchilla cochlea, a major source of reactive oxygen species (ROS), the activity of NADPH oxidase in cytosolic preparations from the cochlea was examined. The activity of NAD(P)H oxidase was determined using 50 μg protein from cochlear extracts incubated with 100 μM β-NAD(P)H in a total volume of 200 μl of Hank's HEPES buffer (pH 7.4). The assay was initiated by the addition of 50 μM N,N′-dimethyl-9,9′-biacridinium dinitrate (Lucigenin) (Sigma, St. Louis, Mo.) to the incubation mixture. Samples were counted immediately using a table top luminometer (Berthold Detection Systems FB Luminometer, Zylux Corp., Maryville, Tenn.) with sampling time every 6 sec. Samples were counted over a period of 5 min and the fluorescence recorded over 2 min of stable readings were averaged for that samples. Samples were run in duplicate and the NAD(P)H oxidase activity was normalized to the protein concentrations in each sample.

Regarding `Oc1cc2c(cc1O)CN(C(=S)NCCc1ccc(Cl)cc1)CCC2` [capsazepine], in the data set on UB-OC1 cells [1], the “effect on cell apoptosis compared to vehicle-treated control” value was “Neither capsazepine nor ruthenium red alone had any significant effect” and the “apoptotic cells (TUNEL), of total cells” value was around 7%. In the data set with p53, the “effect on cisplatin-induced increase in p53” value is given as “attenuated”. Also, in the data set on Bax, the “effect on cisplatin-induced increase in Bax” value is “attenuated”. For the same compound, the “effect on ROS generation of the gentamicin group” value in the data set with UB/OC-1 was “suppressed”.

On to `N.N.N.N.N.N.N.N.N.N.N.N.N.N.[Cl-].[Cl-].[Cl-].[Cl-].[Cl-].[Cl-].[O-2].[O-2].[Ru+3].[Ru+3].[Ru+4]` [ruthenium red], for which, in the data set with UB-OC1 cells [1], the “effect on cell apoptosis compared to vehicle-treated control” value is reported as “Neither capsazepine nor ruthenium red alone had any significant effect” and the “apoptotic cells (TUNEL), of total cells” value is recorded as around 7%. Moreover, the “effect on ROS generation of the gentamicin group” value in the data set with UB/OC-1 is “suppressed”.

For `CC(=O)OCOC(=O)CN(CC(=O)OCOC(C)=O)c1ccccc1OCCOc1ccccc1N(CC(=O)OCOC(C)=O)CC(=O)OCOC(C)=O` [BAPTA-AM], the “effect on cisplatin-induced increase in p53” value in the data set on p53 was “down-regulated the expression of these pro-apoptotic genes to control levels”. For the same compound, the “effect on cisplatin-induced increase in Bax” value in the data set on Bax is reported as “substantial reduction”.

Regarding `O=C(O)CCCC[C@@H]1CCSS1` (racemic) [lipoic acid], the “effect on basal expression of TRPV1” value with TRPV1 mRNA (rat cochlea, lipoic acid alone, not statistically significant) is “tendency to reduce basal expression of TRPV1”. For the same compound, in the data set on TRPV1 mRNA (rats pretreated with lipoic acid before cisplatin, 72 hrs), the “effect on cisplatin-induced TRPV1 expression in vivo” value is reported as “completely abolished”. In addition, the “effect on basal expression of NOX3” value in the data set with NOX3 mRNA [2] (lipoic acid alone) is reported as “significantly reduced”. Besides, in the data set on NOX3 mRNA [2] (lipoic acid pretreatment, cisplatin 72 hrs), the “effect on the increase in NOX3 by cisplatin” value is on record as “attenuated”.

Take `c1ccc2c(c1)[I+]c1ccccc1-2` [DPI, diphenyleneiodonium]: in the data set with TRPV1, the “reduction of TRPV1 immunofluorescence” value stood at 70%. For the same compound, the “effect on cisplatin-induced increase in NOX3 expression” value in the data set on NOX3 mRNA [3] was “inhibited”. The “effect on cisplatin-induced increase in gp91 expression” value in the data set with gp91 is on record as “inhibited”. For the same compound, in the data set with Rac1, the “effect on cisplatin-induced increase in Rac1 expression” value is recorded as “inhibited”. The “effect on cell viability over a 24 h period” value with UB-OC1 cells [4] is reported as “did not significantly affect cell viability”. Also, the “effect on NADPH oxidase activity” value in the data set on NADPH oxidase is recorded as “blockade of enzyme activity”.

Turning to `NCCc1ccc(S(=O)(=O)F)cc1` [AEBSF], the “reduction of TRPV1 immunofluorescence” value in the data set on TRPV1 was 60%. In the data set on UB-OC1 cells [5], the “effect on cisplatin-induced increase in ROS generation” value is on record as “abolished”. For the same compound, the “effect on cell viability over a 24 h period” value with UB-OC1 cells [4] (100 μM AEBSF or 10 μM DPI) is listed as “did not significantly affect cell viability”.
